Results published in paper PMC5462828 (Scientific Reports, 2017).
Blank lines part the entries; values can stand above or below the molecule they belong to.

How the values were obtained:
[1] = test system: ML290-mediated cGMP accumulation; assay: Effect of signalling pathway inhibitors on ML290-mediated cGMP accumulation in human primary vascular cells; format: cell-based; settings: NF449 10 μM, NF023 10 μM, mSIRK 5 μM, gallein 50 μM, Wortmannin 100 nM, 30 min
Experimental: (§1) cAMP and cGMP accumulation was determined as previously described, [16]. Briefly, HEK293 cells were plated in 96-well plates (5 × 10^4 cells/well) and human primary cells were plated into 24-well plates (1 × 10^5 cells/well) and grown overnight to achieve a confluent monolayer. Prior to stimulation, HEK cells were serum-starved in DMEM containing 0.5% FBS v/v and primary cells were serum-starved in M199 medium for 4–6 hours. […] Levels of cAMP and cGMP were detected according to the manufacturer’s instructions (Perkin-Elmer, Australia).

[2] = test system: ML290-mediated cAMP accumulation; assay: Effect of signalling pathway inhibitors on ML290-mediated cAMP accumulation in human primary vascular cells; format: cell-based; settings: NF449 10 μM, NF023 10 μM, mSIRK 5 μM, gallein 50 μM, Wortmannin 100 nM, 30 min
Experimental: as §1

[3] = test system: p-Smad3; assay: Smad3 phosphorylation assay in human cardiac fibroblasts; format: cell-based; settings: HCFs; TGF-β1 2 ng/ml alone; 72 hours
Experimental: (§2) Cells were serum-starved in M199 medium for 24 hours prior sample collection. Cells were used between passages 1–4, while all experiments were performed four separate times in duplicate. Levels of p-Smad2 and p-Smad3 were detected using Sure-fire kits according to the manufacturer’s instructions (Perkin-Elmer, Australia).

[4] = test system: p-Smad2; assay: Smad2 phosphorylation assay in human cardiac fibroblasts; format: cell-based; settings: HCFs; TGF-β1 2 ng/ml alone; 72 hours
Experimental: as §2

[5] = biological target: RXFP1 stably expressed in HEK293 cells (HEK-RXFP1) (human) (UniProt Q9HBX9); assay: radioligand binding; kinetics on HEK-RXFP1 cells in 96-well plates, without ML290: association with 100 pM 125I-H2 relaxin over time; dissociation after 90 min equilibration, started with 200 nM unlabelled H2 relaxin
[6] = biological target: RXFP1 stably expressed in HEK293 cells (HEK-RXFP1) (human) (UniProt Q9HBX9); assay: radioligand binding; kinetics on HEK-RXFP1 cells in 96-well plates, with ML290 (1 μM): association with 100 pM 125I-H2 relaxin over time; dissociation after 90 min equilibration, started with 200 nM unlabelled H2 relaxin
[7] = biological target: T1, RXFP1 stably expressed in HEK293 cells (HEK-RXFP1) (human, UniProt Q9HBX9 1-757); assay: cell-based or functional assay
T1 sequence (looked up): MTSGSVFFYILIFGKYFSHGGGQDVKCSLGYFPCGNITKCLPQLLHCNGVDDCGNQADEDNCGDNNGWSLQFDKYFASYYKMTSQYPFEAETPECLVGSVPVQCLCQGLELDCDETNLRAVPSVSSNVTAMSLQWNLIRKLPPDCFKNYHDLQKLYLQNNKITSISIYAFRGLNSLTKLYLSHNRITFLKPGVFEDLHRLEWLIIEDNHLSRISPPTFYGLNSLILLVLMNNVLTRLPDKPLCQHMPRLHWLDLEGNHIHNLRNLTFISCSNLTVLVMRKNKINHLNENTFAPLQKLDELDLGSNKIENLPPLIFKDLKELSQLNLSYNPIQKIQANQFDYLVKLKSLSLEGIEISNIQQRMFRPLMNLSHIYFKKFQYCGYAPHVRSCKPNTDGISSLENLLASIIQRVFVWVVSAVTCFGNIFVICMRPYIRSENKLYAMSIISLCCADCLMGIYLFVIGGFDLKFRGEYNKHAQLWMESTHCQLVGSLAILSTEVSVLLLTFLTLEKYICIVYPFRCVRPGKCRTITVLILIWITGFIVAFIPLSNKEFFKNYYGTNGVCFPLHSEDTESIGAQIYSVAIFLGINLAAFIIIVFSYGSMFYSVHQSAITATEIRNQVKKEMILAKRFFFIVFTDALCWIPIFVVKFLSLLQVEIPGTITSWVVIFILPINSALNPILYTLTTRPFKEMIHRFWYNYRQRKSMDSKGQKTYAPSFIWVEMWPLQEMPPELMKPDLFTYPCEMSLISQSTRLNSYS

[8] = biological target: T1, RXFP1 stably expressed in HEK293 cells …; assay: radioligand binding; competition on HEK-RXFP1 cells: 100 pM 125I-H2 relaxin against increasing unlabelled H2 relaxin, in the presence of ML290 (1 μM), 90 min, room temperature; settings: one partner purified
[9] = biological target: T1, RXFP1 stably expressed in HEK293 cells …; assay: radioligand binding; competition on HEK-RXFP1 cells: 100 pM 125I-H2 relaxin against increasing unlabelled H2 relaxin, vehicle (0.1% DMSO), 90 min, room temperature; settings: one partner purified

Molecule: O=C1OC2(c3ccccc31)c1ccc(O)c(O)c1Oc1c2ccc(O)c1O [gallein]
- ML290-mediated cGMP accumulation after inhibitor ([1]; HCAECs): not significantly affected
- ML290-mediated cGMP accumulation after inhibitor ([1]; HUASMCs, L9A 5 μM): 15.6 ± 2.6%
- ML290-mediated cGMP accumulation after inhibitor ([1]; HUVECs): not significantly affected
- ML290-mediated cGMP accumulation after inhibitor ([1]; HUVSMCs, L9A 5 μM): 14.3 ± 3.8%
- ML290-mediated cAMP accumulation after inhibitor ([2]; HCAECs): unaffected
- ML290-mediated cAMP accumulation after inhibitor ([2]; HUASMCs, L9A 5 μM): 5.2 ± 1.4 % response to 50 μM forskolin
- ML290-mediated cAMP accumulation after inhibitor ([2]; HUVECs): unaffected
- ML290-mediated cAMP accumulation after inhibitor ([2]; HUVSMCs, L9A 5 μM): 3.2 ± 3.4 % response to 50 μM forskolin

Molecule: COC[C@H]1OC(=O)c2coc3c2[C@@]1(C)C1=C(C3=O)[C@@H]2CCC(=O)[C@@]2(C)C[C@H]1OC(C)=O [Wortmannin]
- ML290-mediated cGMP accumulation after inhibitor ([1]; HCAECs): not significantly affected
- ML290-mediated cGMP accumulation after inhibitor ([1]; HUASMCs, L9A 5 μM): 21.8 ± 3.4%
- ML290-mediated cGMP accumulation after inhibitor ([1]; HUVECs): not significantly affected
- ML290-mediated cGMP accumulation after inhibitor ([1]; HUVSMCs, L9A 5 μM): 14.3 ± 3.3%
- ML290-mediated cAMP accumulation after inhibitor ([2]; HCAECs): unaffected
- ML290-mediated cAMP accumulation after inhibitor ([2]; HUASMCs, L9A 5 μM): 7.2 ± 2.2 % response to 50 μM forskolin
- ML290-mediated cAMP accumulation after inhibitor ([2]; HUVECs): unaffected
- ML290-mediated cAMP accumulation after inhibitor ([2]; HUVSMCs, L9A 5 μM): 6.4 ± 2.2 % response to 50 μM forskolin

Molecule: O=C(Nc1cc(C(=O)Nc2ccc(S(=O)(=O)O)cc2S(=O)(=O)O)cc(C(=O)Nc2ccc(S(=O)(=O)O)cc2S(=O)(=O)O)c1)Nc1cc(C(=O)Nc2ccc(S(=O)(=O)O)cc2S(=O)(=O)O)cc(C(=O)Nc2ccc(S(=O)(=O)O)cc2S(=O)(=O)O)c1 [NF449]
- ML290-mediated cGMP accumulation after inhibitor ([1]; HCAECs): 11.9 ± 5.3 % of the response to DEA
- ML290-mediated cGMP accumulation after inhibitor ([1]; HUASMCs, L9A 5 μM): 24.3 ± 5.7%
- ML290-mediated cGMP accumulation after inhibitor ([1]; HUVECs): 22.3 ± 3.0 % of the response to DEA
- ML290-mediated cGMP accumulation after inhibitor ([1]; HUVSMCs, L9A 5 μM): 18.8 ± 3.7%
- ML290-mediated cAMP accumulation after inhibitor ([2]; HCAECs): 0.8 ± 3.9 % response to 50 μM forskolin
- ML290-mediated cAMP accumulation after inhibitor ([2]; HUASMCs, L9A 5 μM): 6.0 ± 7.3 % response to 50 μM forskolin
- ML290-mediated cAMP accumulation after inhibitor ([2]; HUVECs): 0.8 ± 5.7 % response to 50 μM forskolin
- ML290-mediated cAMP accumulation after inhibitor ([2]; HUVSMCs, L9A 5 μM): 4.7 ± 2.5 % response to 50 μM forskolin

Molecule: TGF-β1: pro-fibrotic cytokine used to induce Smad2 and Smad3 phosphorylation
- increase in p-Smad3 compared to vehicle-treated samples [3]: 1.41 ± 0.07 fold
- increase in p-Smad2 compared to vehicle-treated samples [4]: 2.21 ± 0.17 fold

- koff [5]: 0.000833 s⁻¹
- kon [5]: 3.5e+06 M⁻¹ s⁻¹
- koff [6]: 0.000667 s⁻¹
- kon [6]: 4.67e+06 M⁻¹ s⁻¹
Molecule: 125I-H2 relaxin (ligand)

Molecule: O=C(Nc1cccc(C(=O)Nc2ccc(S(=O)(=O)O)c3cc(S(=O)(=O)O)cc(S(=O)(=O)O)c23)c1)Nc1cccc(C(=O)Nc2ccc(S(=O)(=O)O)c3cc(S(=O)(=O)O)cc(S(=O)(=O)O)c23)c1 [NF023]
- ML290-mediated cGMP accumulation after inhibitor ([1]; HCAECs): not significantly affected
- ML290-mediated cGMP accumulation after inhibitor ([1]; HUASMCs, L9A 5 μM): no effect
- ML290-mediated cGMP accumulation after inhibitor ([1]; HUVECs): not significantly affected
- ML290-mediated cGMP accumulation after inhibitor ([1]; HUVSMCs, L9A 5 μM): no effect
- ML290-mediated cAMP accumulation after inhibitor ([2]; HCAECs): unaffected
- ML290-mediated cAMP accumulation after inhibitor ([2]; HUASMCs, L9A 5 μM): no effect
- ML290-mediated cAMP accumulation after inhibitor ([2]; HUVECs): unaffected
- ML290-mediated cAMP accumulation after inhibitor ([2]; HUVSMCs, L9A 5 μM): no effect

- cAMP accumulation in HCAEC (endogenous RXFP1), pEC50 (efficacy in brackets as % of forskolin 50 μM) [7]: 8.9
- cGMP accumulation in HCAEC (endogenous RXFP1), pEC50 (efficacy in brackets as % of DEA) [7]: 9.2
- cGMP accumulation in HCF (endogenous RXFP1), 40 min, pEC50 (efficacy in brackets as % of DEA) [7]: 9.6
- p-ERK1/2 in HEK-RXFP1 cells, 5 min, pEC50 (efficacy in brackets as % of 10% FBS) [7]: 9.5
- p-p38MAPK in HEK-RXFP1 cells, 15 min, pEC50 (efficacy in brackets as % of sorbitol) [7]: 8.9
- pKi [8]: 9.7
- pKi [9]: 9.5
B1: Human gene 2 relaxin (H2 relaxin) (ligand)
chain 1: QLYSALANKCCHVGCTKRSLARFC
chain 2: DSWMEEVIKLCGRELVRAQIAICGMSTWS
